Test results from patent publication US9169252B2 (BRISTOL-MYERS SQUIBB COMPANY, priority 2014, dated 2015).
Where two headings read alike, the source gives them in different places.

What was measured:
IRAK4 = IRAK4 (Homo sapiens (Human), UniProt Q9NWZ3); test: IRAK4 Inhibition Assay; assay type: biochemical; settings: ATP 500 μM, read-out: IRAK4 IC50
Experimental: The assays were performed in U-bottom 384-well plates. […] The reaction was initiated by the combination of IRAK4 with substrates and test compounds. The reaction mixture was incubated at room temperature for 60 min. and terminated by adding 45 μL of 35 mM EDTA to each sample. The reaction mixture was analyzed on the Caliper LABCHIP® 3000 (Caliper, Hopkinton, Mass.) by electrophoretic separation of the fluorescent substrate and phosphorylated product.

[1] = system: TLR2 induced IL-6 in peripheral blood mononuclear cells (PBMCs); test: PBMC TLR2 Induced IL-6 Assay; assay type: cell-based, human; settings: IL-6 by ELISA; for EC50: read-out: Cell EC50; for IC50: read-out: Cell IC50
Experimental: PBMC TLR2 Induced IL-6 Assay
Peripheral blood mononuclear cells (PBMCs) were isolated from human blood containing the anti-coagulant EDTA (2.5 mM) by centrifugation over a FICOLL® gradient. PBMCs (250000 cells/well) were cultured in assay media (RPMI with 10% heat inactivated FCS) with compounds for 30 minutes at 37° C. in a 5% CO2 incubator. Following pretreatment with compounds, cells were stimulated for 5 hours with 10 µg/ml lipoteichoic acid (Invivogen, San Diego, Calif.), a TLR2 agonist. At the end of the culture, plates were centrifuged at 1800 rpm for 10 minutes to pellet the cells.

[2] = Homo sapiens, PBMC, human PBMCs, lipoteichoic acid stimulated
[3] = human PBMCs, lipoteichoic acid stimulated
[4] = Homo sapiens, PBMC, PBMC TLR2 Induced IL-6 Assay, lipoteichoic acid stimulation

Sequence of IRAK4 (Q9NWZ3 whole entry, species assumed): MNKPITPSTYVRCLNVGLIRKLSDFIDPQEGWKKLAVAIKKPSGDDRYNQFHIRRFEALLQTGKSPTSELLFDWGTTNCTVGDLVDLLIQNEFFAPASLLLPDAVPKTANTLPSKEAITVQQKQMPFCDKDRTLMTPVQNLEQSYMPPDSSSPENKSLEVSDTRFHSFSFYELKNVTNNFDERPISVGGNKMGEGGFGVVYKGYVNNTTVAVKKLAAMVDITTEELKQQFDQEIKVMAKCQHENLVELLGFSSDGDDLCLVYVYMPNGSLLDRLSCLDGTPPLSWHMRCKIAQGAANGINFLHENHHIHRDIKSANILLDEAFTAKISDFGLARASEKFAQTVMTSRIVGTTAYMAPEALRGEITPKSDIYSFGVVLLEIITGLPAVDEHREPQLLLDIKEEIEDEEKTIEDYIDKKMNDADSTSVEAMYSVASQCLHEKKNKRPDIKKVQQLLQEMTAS

IC50 (IRAK4; IRAK4 0.6 nM)	IC50 (IRAK4; IRAK4 Inhibition Assay)	Structure (SMILES)	EC50 [1, 4]	also measured
7.7 nM	–	CC(C)(O)[C@H](F)CNC(=O)c1cnc(-n2ncc3cc(C#N)cnc32)cc1NC1CCC(F)(F)C1 (single isomer, unassigned) [Example 614]	–	EC50 [1, 2]: 481 nM; IC50 [1, 3]: 491 nM
2.3 nM	–	CC(C)(O)[C@H](F)CNC(=O)c1cnc(-n2ncc3cc(C#N)cnc32)cc1NC1CCC(F)(F)C1 (single isomer, unassigned) [Example 615]	–	IC50 [1, 3]: 190 nM
5.8 nM	–	CC(C)(O)[C@H](F)CNC(=O)c1cnc(-n2ncc3cc(F)cnc32)cc1NC1CCC(F)C1 (single isomer, unassigned) [Example 618]	–	EC50 [1, 2]: 127 nM
4 nM	–	CC(C)(O)[C@H](F)CNC(=O)c1cnc(-n2ncc3cc(F)cnc32)cc1NC1CCC(F)C1 (single isomer, unassigned) [Example 619]	–	EC50 [1, 3]: 119 nM
4.8 nM	–	CC(C)(O)[C@H](F)CNC(=O)c1cnc(-n2ncc3cc(C#N)cnc32)cc1N[C@@H]1C[C@H]1CO (single isomer, unassigned) [Example 642]	–	IC50 [1, 2]: 197 nM
5.4 nM	–	CC(C)(O)[C@H](F)CNC(=O)c1cnc(-n2ncc3cc(C#N)cnc32)cc1N[C@@H]1C[C@H]1CO (single isomer, unassigned) [Example 643]	–	IC50 [1, 3]: 320 nM
–	1.6 nM	CC(C)(O)[C@H](F)CNC(=O)c1cnc(-n2ccc3cc(C#N)cnc32)cc1NC1CC1 [Example 2, (R)-6-(5-cyano-1H-pyrrolo[2,3-b]pyridin-1-yl)-4-(cyclopropylamino)-N-(2-fluoro-3-hydroxy-3-methylbutyl)nicotinamide]	8 nM	IC50 [1, 4]: 26 nM
–	1 nM	CC(C)(O)[C@H](F)CNC(=O)c1cnc(-n2ccc3cc(C#N)cnc32)cc1NC1CCOCC1 [Example 3, (R)-6-(5-cyano-1H-pyrrolo[2,3-b]pyridin-1-yl)-N-(2-fluoro-3-hydroxy-3-methylbutyl)-4-((tetrahydro-2H-pyran-4-yl)amino)nicotinamide]	11 nM	IC50 [1, 4]: 48 nM
–	1 nM	CC(C)(O)[C@H](F)CNC(=O)c1cnc(-n2ccc3cc(C#N)cnc32)cc1NC1CCC1 [Example 6, (R)-6-(5-cyano-1H-pyrrolo[2,3-b]pyridin-1-yl)-4-(cyclobutylamino)-N-(2-fluoro-3-hydroxy-3-methylbutyl) nicotinamide]	243 nM	IC50 [1, 4]: 243 nM
–	1.8 nM	CC(C)(O)[C@H](F)CNC(=O)c1cnc(-n2ccc3cc(C#N)cnc32)cc1NC1CCCC1 [Example 10, (R)-6-(5-cyano-1H-pyrrolo[2,3-b]pyridin-1-yl)-4-(cyclopentylamino)-N-(2-fluoro-3-hydroxy-3-methylbutyl)nicotinamide]	63 nM	IC50 [1, 4]: 79 nM

More lines, now with the values behind:

Structure (SMILES)	IC50 (IRAK4; IRAK4 0.6 nM)	IC50 (IRAK4; IRAK4 Inhibition Assay)	EC50 [1, 4]	also measured
CC(C)(O)[C@H](F)CNC(=O)c1cnc(-n2ccc3cc(C#N)cnc32)cc1NC1COCC1(F)F (single isomer, unassigned) [Example 485]	8.7 nM	–	–	EC50 [1, 2]: 198 nM; IC50 [1, 3]: 1080 nM
CC(C)CC(O)[C@H](C)Nc1cc(-n2ccc3cc(C#N)cnc32)ncc1C(=O)NC[C@@H](F)C(C)(C)O (single isomer, unassigned) [Example 496]	10.9 nM	–	–	IC50 [1, 2]: 197 nM
CC(C)C(O)CNc1cc(-n2ncc3cc(Cl)cnc32)ncc1C(=O)NC[C@@H](F)C(C)(C)O (single isomer, unassigned) [Example 594]	17.5 nM	–	–	IC50 [1, 2]: 319 nM
CC(C)C(O)CNc1cc(-n2ncc3cc(Cl)cnc32)ncc1C(=O)NC[C@@H](F)C(C)(C)O (single isomer, unassigned) [Example 596]	18.2 nM	–	–	IC50 [1, 3]: 578 nM
CC(C)Nc1cc(-n2ccc3cc(C#N)ccc32)ncc1C(=O)NC[C@@H](F)C(C)(C)O [Example 1, (R)-6-(5-Cyano-1H-indol-1-yl)-N-(2-fluoro-3-hydroxy-3-methylbutyl)-4-(isopropylamino)nicotinamide]	–	3.3 nM	901 nM	IC50 [1, 4]: 873 nM
CCNc1cc(-n2ccc3cc(C#N)cnc32)ncc1C(=O)NC[C@@H](F)C(C)(C)O [Example 4, (R)-6-(5-cyano-1H-pyrrolo[2,3-b]pyridin-1-yl)-4-(ethylamino)-N-(2-fluoro-3-hydroxy-3-methylbutyl) nicotinamide]	–	1.4 nM	15 nM	IC50 [1, 4]: 157 nM
CC(C)(O)[C@H](F)CNC(=O)c1cnc(-n2ccc3cc(C#N)cnc32)cc1NCC(F)(F)F [Example 5, (R)-6-(5-cyano-1H-pyrrolo[2,3-b]pyridin-1-yl)-N-(2-fluoro-3-hydroxy-3-methylbutyl)-4-((2,2,2-trifluoroethyl)amino)nicotinamide]	–	2.3 nM	78 nM	IC50 [1, 4]: 95 nM
C[C@@H](CO)Nc1cc(-n2ccc3cc(C#N)cnc32)ncc1C(=O)NC[C@@H](F)C(C)(C)O [Example 9, 6-(5-cyano-1H-pyrrolo[2,3-b]pyridin-1-yl)-N—((R)-2-fluoro-3-hydroxy-3-methylbutyl)-4-(((S)-1-hydroxypropan-2-yl)amino) nicotinamide]	–	1.5 nM	57 nM	IC50 [1, 4]: 43 nM
CC(C)Nc1cc(-n2ccc3cc(C#N)cnc32)ncc1C(=O)NCCC(C)(C)O [Example 11, 6-(5-cyano-1H-pyrrolo[2,3-b]pyridin-1-yl)-N-(3-hydroxy-3-methylbutyl)-4-(isopropylamino)nicotinamide]	–	1.7 nM	50 nM	–
CC(C)(O)CCNC(=O)c1cnc(-n2ccc3cc(C#N)cnc32)cc1NC1CCOCC1 [Example 12, 6-(5-cyano-1H-pyrrolo[2,3-b]pyridin-1-yl)-N-(3-hydroxy-3-methylbutyl)-4-((tetrahydro-2H-pyran-4-yl)amino)nicotinamide]	–	1.7 nM	122 nM	–
CC(C)(O)[C@H](F)CNC(=O)c1cnc(-n2ccc3cc(C#N)cnc32)cc1NC12CC3CC(CC(C3)C1)C2 [Example 13, 4-((1s,3S)-adamantan-1-ylamino)-6-(5-cyano-1H-pyrrolo[2,3-b]pyridin-1-yl)-N—((R)-2-fluoro-3-hydroxy-3-methylbutyl)nicotinamide]	–	12 nM	346 nM	–
CC(C)Nc1cc(-n2ccc3cc(C#N)cnc32)ncc1C(=O)NC12CCC(O)(CC1)C2 [Example 14, 6-(5-cyano-1H-pyrrolo[2,3-b]pyridin-1-yl)-N-(4-hydroxybicyclo[2.2.1]heptan-1-yl)-4-(isopropylamino)nicotinamide]	–	14.8 nM	286 nM	–
CC(C)Nc1cc(-n2ccc3cc(C#N)cnc32)ncc1C(=O)NCCCOC(C)(C)C [Example 15, N-(3-(tert-butoxy)propyl)-6-(5-cyano-1H-pyrrolo[2,3-b]pyridin-1-yl)-4-(isopropylamino)nicotinamide]	–	5.5 nM	171 nM	–
CC(C)(O)[C@H](F)CNC(=O)c1cnc(-n2ccc3cc(C#N)cnc32)cc1NC12CCC(O)(CC1)C2 [Example 16, (R)-6-(5-cyano-1H-pyrrolo[2,3-b]pyridin-1-yl)-N-(2-fluoro-3-hydroxy-3-methylbutyl)-4-((4-hydroxybicyclo[2.2.1]heptan-1-yl)amino)nicotinamide]	–	1.2 nM	15 nM	–
CC1(Nc2cc(-n3ccc4cc(C#N)cnc43)ncc2C(=O)NC[C@@H](F)C(C)(C)O)CC1 [Example 17, (R)-6-(5-cyano-1H-pyrrolo[2,3-b]pyridin-1-yl)-N-(2-fluoro-3-hydroxy-3-methylbutyl)-4-((1-methylcyclopropyl)amino)nicotinamide]	–	1.2 nM	42 nM	–
CCCNc1cc(-n2ccc3cc(C#N)cnc32)ncc1C(=O)NC[C@@H](F)C(C)(C)O [Example 18]	–	2.1 nM	62 nM	–
CC(C)CCNc1cc(-n2ccc3cc(C#N)cnc32)ncc1C(=O)NC[C@@H](F)C(C)(C)O [Example 19, (R)-6-(5-cyano-1H-pyrrolo[2,3-b]pyridin-1-yl)-N-(2-fluoro-3-hydroxy-3-methylbutyl)-4-(isopentylamino) nicotinamide]	–	3.2 nM	252 nM	–
CC1(CNc2cc(-n3ccc4cc(C#N)cnc43)ncc2C(=O)NC[C@@H](F)C(C)(C)O)COC1 [Example 20, (R)-6-(5-cyano-1H-pyrrolo[2,3-b]pyridin-1-yl)-N-(2-fluoro-3-hydroxy-3-methylbutyl)-4-(((3-methyloxetan-3-yl)methyl)amino)nicotinamide]	–	5.7 nM	497 nM	–
CC(C)Nc1cc(-n2ccc3cc(C#N)cnc32)ncc1C(=O)NC[C@H](F)C(C)(C)O [Example 23, (S)-6-(5-cyano-1H-pyrrolo[2,3-b]pyridin-1-yl)-N-(2-fluoro-3-hydroxy-3-methylbutyl)-4-(isopropylamino)nicotinamide]	–	2.6 nM	110 nM	–
